The record followed here is patent US9328122B2, “7-substituted Hanfangichin B derivative, and preparation method and use thereof” (HANGZHOU BENSHENG PHARMACEUTICAL CO., LTD., priority 2012, dated 2016).

Molecules are shown by their SMILES. In brackets after ≈: the same amount, converted by molar mass.

The first assay relates to PANC-1 (pancreatic cancer) cells. The assay is described as follows: MTT cell growth inhibition, solid tumor cells. Format: cell-based, human. As to conditions: Homo sapiens; PANC-1, 72 h, MTT; read-out: IC90. From the text: (§1) Hep-2 (laryngeal carcinoma), A549 (human lung cancer), CaES-17 (esophageal cancer cell), PC-3 (prostate cancer), CNE (nasopharyngeal carcinoma cell) and SK-OV-3 (ovarian cancer cell), all of which were purchased from China Center For Type Culture Collection; RKO (human colon adenocarcinoma cell), MGC-803 (human gastric cancer cell), MG-63 (osteosarcoma), and U87-MG (malignant glioma cell), all of which were purchased from Fuxiang Bio-tech Co. Ltd., Shanghai, China; PANC-1 (pancreatic cancer), Becap37 (human breast cancer cell), Hela (human cervical cancer cell) and Hep G2 (human liver cancer cell), all of which were donated by Cancer Research Institute of Zhejiang University, China.
(§2) 6000 well-growing human solid tumor cells were obtained and inoculated into wells of a 96-well cell culture plate. The culture medium was DMEM High Glucose cell culture medium containing 10% fetal bovine serum. The plate was placed in a carbon dioxide cell incubator (5% CO2) at 37° C. and incubated for 24 hours. After added with 7-substituted fangchinoline derivatives of different concentration and mixing uniformly, the plate was placed in a carbon dioxide cell incubator (5% CO2) at 37° C. and incubated for 72 hours. Then the viable cell concentration was determined by the MTT method.
Take `COc1ccc2cc1Oc1ccc(cc1)C[C@H]1c3cc(c(OC)cc3CCN1C)Oc1c(OCC3CC3)c(OC)cc3c1[C@H](C2)N(C)CC3` [BS-FC-208]: the IC90 is 8.31 µg/mL (≈ 12.5 µM).

Another assay relates to PC-3 (prostate cancer) cells. The assay is described as follows: MTT cell growth inhibition, solid tumor cells. Format: cell-based, human. As to conditions: Homo sapiens; PC-3, 72 h, MTT; read-out: IC50.
Source text: as §1, §2
With `COc1ccc2cc1Oc1ccc(cc1)C[C@H]1c3cc(c(OC)cc3CCN1C)Oc1c(OCC3CC3)c(OC)cc3c1[C@H](C2)N(C)CC3` [BS-FC-208], the IC50 worked out at 3.07 µg/mL (≈ 4.63 µM).

The assay is the same for the next values; noted with them: Homo sapiens; PC-3, 72 h, MTT; read-out: IC90.
`COc1ccc2cc1Oc1ccc(cc1)C[C@H]1c3cc(c(OC)cc3CCN1C)Oc1c(OCC3CC3)c(OC)cc3c1[C@H](C2)N(C)CC3` [BS-FC-208]: the IC90 was determined as 5.91 µg/mL (≈ 8.92 µM).

The next assay relates to SK-OV-3 (ovarian cancer) cells. The assay is described as follows: MTT cell growth inhibition, solid tumor cells. Format: cell-based, human. To be noted: Homo sapiens; SK-OV-3, 72 h, MTT; read-out: IC50.
Source text: as §1, §2
`COc1ccc2cc1Oc1ccc(cc1)C[C@H]1c3cc(c(OC)cc3CCN1C)Oc1c(OCC3CC3)c(OC)cc3c1[C@H](C2)N(C)CC3` [BS-FC-208]: the IC50 amounted to 3.77 µg/mL (≈ 5.69 µM).

The same assay, now with this note: Homo sapiens; SK-OV-3, 72 h, MTT; read-out: IC90.
Turning to `COc1ccc2cc1Oc1ccc(cc1)C[C@H]1c3cc(c(OC)cc3CCN1C)Oc1c(OCC3CC3)c(OC)cc3c1[C@H](C2)N(C)CC3` [BS-FC-208], the IC90 amounted to 7.85 µg/mL (≈ 11.8 µM).

In a further assay the test system is Becap-37 (human breast cancer) cells. The assay is described as follows: MTT cell growth inhibition, solid tumor cells. Type of assay: cell-based. To be noted: Homo sapiens; Becap-37, 72 h, MTT; read-out: IC50.
Source text: as §1, §2
Take `COc1ccc2cc1Oc1ccc(cc1)C[C@H]1c3cc(c(OC)cc3CCN1C)Oc1c(OCC3CC3)c(OC)cc3c1[C@H](C2)N(C)CC3` [BS-FC-208]: the IC50 came to 2.35 µg/mL (≈ 3.55 µM).

The assay is the same for the next values; noted with them: Homo sapiens; Becap-37, 72 h, MTT; read-out: IC90.
`COc1ccc2cc1Oc1ccc(cc1)C[C@H]1c3cc(c(OC)cc3CCN1C)Oc1c(OCC3CC3)c(OC)cc3c1[C@H](C2)N(C)CC3` [BS-FC-208]: the 90% effect concentration (IC90) was found to be 5.55 µg/mL (≈ 8.37 µM).

The test system of the next assay is Hela (human cervical cancer) cells. The experiment in a line: MTT cell growth inhibition, solid tumor cells. As to conditions: Homo sapiens; Hela, 72 h, MTT; read-out: IC50. Type of assay: cell-based.
Source text: as §1, §2
For `COc1ccc2cc1Oc1ccc(cc1)C[C@H]1c3cc(c(OC)cc3CCN1C)Oc1c(OCC3CC3)c(OC)cc3c1[C@H](C2)N(C)CC3` [BS-FC-208], the IC50 came out at 1.74 µg/mL (≈ 2.63 µM).

Staying with this assay, now noted: Homo sapiens; Hela, 72 h, MTT; read-out: IC90.
Take `COc1ccc2cc1Oc1ccc(cc1)C[C@H]1c3cc(c(OC)cc3CCN1C)Oc1c(OCC3CC3)c(OC)cc3c1[C@H](C2)N(C)CC3` [BS-FC-208]: the IC90 was determined as 4 µg/mL (≈ 6.03 µM).

For a further assay, the system named is Hep G2 (human liver cancer) cells. The assay is described as follows: MTT cell growth inhibition, solid tumor cells. Format: cell-based. As to conditions: Homo sapiens, HepG2; Hep G2, 72 h, MTT; read-out: IC50.
Source text: as §1, §2
`COc1ccc2cc1Oc1ccc(cc1)C[C@H]1c3cc(c(OC)cc3CCN1C)Oc1c(OCC3CC3)c(OC)cc3c1[C@H](C2)N(C)CC3` [BS-FC-208]: the IC50 came to 1.94 µg/mL (≈ 2.93 µM).

The same assay, now with this note: Homo sapiens, HepG2; Hep G2, 72 h, MTT; read-out: IC90.
Take `COc1ccc2cc1Oc1ccc(cc1)C[C@H]1c3cc(c(OC)cc3CCN1C)Oc1c(OCC3CC3)c(OC)cc3c1[C@H](C2)N(C)CC3` [BS-FC-208]: the IC90 was found to be 5.95 µg/mL (≈ 8.98 µM).

The subject of a further assay is MG-63 (osteosarcoma) cells. The assay is described as follows: MTT cell growth inhibition, solid tumor cells. Type of assay: cell-based. As to conditions: Homo sapiens; MG-63, 72 h, MTT; read-out: IC50.
Source text: as §1, §2
On to `COc1ccc2cc1Oc1ccc(cc1)C[C@H]1c3cc(c(OC)cc3CCN1C)Oc1c(OCC3CC3)c(OC)cc3c1[C@H](C2)N(C)CC3` [BS-FC-208], for which the IC50 came out at 1.6 µg/mL (≈ 2.41 µM).

The assay is the same for the next values; noted with them: Homo sapiens; MG-63, 72 h, MTT; read-out: IC90.
For the compound `COc1ccc2cc1Oc1ccc(cc1)C[C@H]1c3cc(c(OC)cc3CCN1C)Oc1c(OCC3CC3)c(OC)cc3c1[C@H](C2)N(C)CC3` [BS-FC-208], the IC90 is 2.5 µg/mL (≈ 3.77 µM).

Another assay deals with RKO (human colon adenocarcinoma) cells. The experiment in a line: MTT cell growth inhibition, solid tumor cells. Format: cell-based. To be noted: Homo sapiens; RKO, 72 h, MTT; read-out: IC50.
Source text: as §1, §2
In the case of `COc1ccc2cc1Oc1ccc(cc1)C[C@H]1c3cc(c(OC)cc3CCN1C)Oc1c(OCC3CC3)c(OC)cc3c1[C@H](C2)N(C)CC3` [BS-FC-208], the half-inhibitory concentration (IC50) is 1.64 µg/mL (≈ 2.47 µM).

The assay is the same for the next values; noted with them: Homo sapiens; RKO, 72 h, MTT; read-out: IC90.
Turning to `COc1ccc2cc1Oc1ccc(cc1)C[C@H]1c3cc(c(OC)cc3CCN1C)Oc1c(OCC3CC3)c(OC)cc3c1[C@H](C2)N(C)CC3` [BS-FC-208], the concentration for an effect of 90% (IC90) was 4.64 µg/mL (≈ 7 µM).

The test system of another assay is U87-MG (malignant glioma) cells. The experiment in a line: MTT cell growth inhibition, solid tumor cells. Format: cell-based. To be noted: Homo sapiens, U-87 MG; U87-MG, 72 h, MTT; read-out: IC50.
Source text: as §1, §2
As for `COc1ccc2cc1Oc1ccc(cc1)C[C@H]1c3cc(c(OC)cc3CCN1C)Oc1c(OCC3CC3)c(OC)cc3c1[C@H](C2)N(C)CC3` [BS-FC-208], the concentration for half-maximal inhibition (IC50) was determined as 1.99 µg/mL (≈ 3 µM).

The assay is the same for the next values; noted with them: Homo sapiens, U-87 MG; U87-MG, 72 h, MTT; read-out: IC90.
Take `COc1ccc2cc1Oc1ccc(cc1)C[C@H]1c3cc(c(OC)cc3CCN1C)Oc1c(OCC3CC3)c(OC)cc3c1[C@H](C2)N(C)CC3` [BS-FC-208]: the IC90 is 7.48 µg/mL (≈ 11.3 µM).

The next assay concerns tumor. The assay is described as follows: Antitumor activity compared with fangchinoline, overall statement. To be noted: tumor type not specified. Type of assay: cell-based.
As for `COc1ccc2cc1Oc1ccc(cc1)C[C@H]1c3cc(c(OC)cc3CCN1C)Oc1c(OCC3CC3)c(OC)cc3c1[C@H](C2)N(C)CC3` [BS-FC-208], the “antitumor activity compared with that of fangchinoline” value is reported as “significantly superior”.

By IC90 is commonly meant the concentration needed for an effect of 90%. As usually defined, the IC50 is the midpoint of a concentration-inhibition curve.
